Where “and” joins values, the source holds several entries; their conditions need not be identical. Equal entries are not always repeated. Inconclusive results and toxic doses are left out. Peptide text beside a SMILES is read from it.
System: L1210 leukemia ip in BDF1 mice, survival T/C
Test: NCI In Vivo Anticancer Drug Screen. Data for tumor model L1210 Leukemia (intraperitoneal) in B6D2F1 (BDF1) mice
Conditions: endpoint: mean survival time, higher = longer survival
Method in brief: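 Survival endpoint. Drug-treated group vs vehicle group, expressed as T divided by C. Tumor passaged by transplantation.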

[1] = dose: 5.0 mg/kg/injection, schedule: Q01DX015 (ip), vehicle: carboxymethylcellulose (CMC)
[2] = dose: 20.0 mg/kg/injection, schedule: Q01DX015 (ip), vehicle: carboxymethylcellulose (CMC)
[3] = dose: 75.0 mg/kg/injection, schedule: Q01DX001 (ip), vehicle: other
[4] = dose: 150.0 mg/kg/injection, schedule: Q01DX001 (ip), vehicle: other
[5] = dose: 100.0 mg/kg/injection, schedule: Q01DX009 (ip), vehicle: Klucel (hydroxypropylcellulose) (HPC)
[6] = dose: 200.0 mg/kg/injection, schedule: Q01DX009 (ip), vehicle: Klucel (hydroxypropylcellulose) (HPC)
[7] = dose: 100.0 mg/kg/injection, schedule: Q01DX001 (ip), vehicle: saline
[8] = dose: 100.0 mg/kg/injection, schedule: Q01DX001 (ip), vehicle: carboxymethylcellulose (CMC)
[9] = dose: 200.0 mg/kg/injection, schedule: Q01DX001 (ip), vehicle: carboxymethylcellulose (CMC)
[10] = dose: 400.0 mg/kg/injection, schedule: Q01DX001 (ip), vehicle: carboxymethylcellulose (CMC)
[11] = dose: 50.0 mg/kg/injection, schedule: Q04DX003 (ip), vehicle: saline
[12] = dose: 100.0 mg/kg/injection, schedule: Q04DX003 (ip), vehicle: saline
[13] = dose: 200.0 mg/kg/injection, schedule: Q04DX003 (ip), vehicle: saline
[14] = dose: 100.0 mg/kg/injection, schedule: Q04DX002 (ip), vehicle: saline
[15] = dose: 200.0 mg/kg/injection, schedule: Q04DX002 (ip), vehicle: saline
[16] = dose: 400.0 mg/kg/injection, schedule: Q04DX002 (ip), vehicle: saline
[17] = dose: 50.0 mg/kg/injection, schedule: Q01DX009 (ip), vehicle: saline
[18] = dose: 50.0 mg/kg/injection, schedule: Q01DX001 (ip), vehicle: carboxymethylcellulose (CMC)
[19] = dose: 100.0 mg/kg/injection, schedule: Q04DX003 (ip), vehicle: saline with Tween-80
[20] = dose: 100.0 mg/kg/injection, schedule: Q01DX009 (ip), vehicle: saline
[21] = dose: 200.0 mg/kg/injection, schedule: Q01DX009 (ip), vehicle: saline
[22] = dose: 400.0 mg/kg/injection, schedule: Q01DX009 (ip), vehicle: saline
[23] = dose: 400.0 mg/kg/injection, schedule: Q04DX003 (ip), vehicle: saline

SMILES: COc1ccc(-c2csc(-c3ccccc3)n2)cc1N=Cc1ccc(N(CCCl)CCCl)c(OC)c1
- T/C (dose: 0.96 mg/kg/injection, schedule: Q01DX009 (ip), vehicle: acetone): 106 % of control
- T/C (dose: 1.4 mg/kg/injection, schedule: Q01DX009 (ip), vehicle: acetone): 103 % of control
- T/C [1]: 120 % of control
- T/C (dose: 8.0 mg/kg/injection, schedule: Q01DX015 (ip), vehicle: carboxymethylcellulose (CMC)): 113 % of control
- T/C (dose: 10.0 mg/kg/injection, schedule: Q01DX009 (ip), vehicle: acetone): 154 % of control
- T/C (dose: 20.0 mg/kg/injection, schedule: Q01DX009 (ip), vehicle: acetone): 166 % of control
- T/C [2]: 153 % of control
- T/C (dose: 40.0 mg/kg/injection, schedule: Q01DX009 (ip), vehicle: acetone): 102 % of control
- T/C (dose: 66.0 mg/kg/injection, schedule: Q01DX015 (ip), vehicle: carboxymethylcellulose (CMC)): 101 % of control
- T/C (dose: 100.0 mg/kg/injection, schedule: Q01DX015 (ip), vehicle: carboxymethylcellulose (CMC)): 104 % of control

SMILES: OC1CCC(c2ccccc2)C1 (centres undefined)
- T/C [3]: 98 % of control
- T/C [4]: 97 % of control
- T/C (dose: 300.0 mg/kg/injection, schedule: Q01DX001 (ip), vehicle: other): 106 % of control

SMILES: CC1(C)C=CC(=NO)C=C1
- T/C [5]: 96 % of control
- T/C [6]: 97 % of control

SMILES: O=C1OCCC1[P+](c1ccccc1)(c1ccccc1)c1ccccc1 (centres undefined)
- T/C [7]: 88 % of control

SMILES: CCOP(=S)(N/N=C\C(C)(C)C1CCCCC1)OCC
- T/C [8]: 94 % of control
- T/C [9]: 91 % of control
- T/C [10]: 98 % of control

SMILES: C=CC1CNCCC1CC(=O)OCC (centres undefined)
- T/C [11]: 97 % of control
- T/C [7]: 95 % of control
- T/C [12]: 95 % of control
- T/C (dose: 200.0 mg/kg/injection, schedule: Q01DX001 (ip), vehicle: saline): 91 % of control
- T/C [13]: 111 % of control

SMILES: O=C(O)C1CC2c3ccccc3C1c1ccccc12 (centres undefined)
- T/C (dose: 25.0 mg/kg/injection, schedule: Q01DX009 (ip), vehicle: Klucel (hydroxypropylcellulose) (HPC)): 90 % of control
- T/C (dose: 50.0 mg/kg/injection, schedule: Q01DX009 (ip), vehicle: Klucel (hydroxypropylcellulose) (HPC)): 97 % of control
- T/C [5]: 104 % of control
- T/C (dose: 100.0 mg/kg/injection, schedule: Q04DX003 (ip), vehicle: Klucel (hydroxypropylcellulose) (HPC)): 90 % of control

SMILES: O=C(O)c1cc(=O)n(CCCn2c(=O)cc(C(=O)O)[nH]c2=O)c(=O)[nH]1
- T/C (dose: 100.0 mg/kg/injection, schedule: Q04DX002 (ip), vehicle: saline with Tween-80): 93 % of control
- T/C (dose: 200.0 mg/kg/injection, schedule: Q04DX002 (ip), vehicle: saline with Tween-80): 101 % of control
- T/C (dose: 400.0 mg/kg/injection, schedule: Q04DX002 (ip), vehicle: saline with Tween-80): 89 % of control

SMILES: Cc1ccc(N=Nc2ccc(C)cc2NC(=O)Nc2cc(Cl)ccc2C)cc1
- T/C [5]: 93 % of control
- T/C [6]: 94 % of control

SMILES: Cc1ccc(Nc2cc(=O)[nH]c(N)n2)cc1C
- T/C (dose: 100.0 mg/kg/injection, schedule: Q01DX Z (ip), vehicle: methylcellulose (MC)): 95 % of control
- T/C (dose: 200.0 mg/kg/injection, schedule: Q01DX Z (ip), vehicle: methylcellulose (MC)): 95 % of control

SMILES: CCOC(=O)/C(C#N)=C\c1ccc(N(C)CCC#N)cc1
- T/C [5]: 100 % of control
- T/C [6]: 96 % of control
- T/C (dose: 400.0 mg/kg/injection, schedule: Q01DX009 (ip), vehicle: Klucel (hydroxypropylcellulose) (HPC)): 94 % of control

SMILES: CC(=O)CCC(=O)CCC(C)=O
- T/C [14]: 93 % of control
- T/C [15]: 101 % of control
- T/C [16]: 101 % of control

SMILES: CN(C)CCCN1c2ccccc2Sc2c(Cl)cc(Cl)cc21
- T/C (dose: 6.25 mg/kg/injection, schedule: Q01DX009 (ip), vehicle: saline): 97 % of control
- T/C (dose: 12.5 mg/kg/injection, schedule: Q01DX009 (ip), vehicle: saline): 103 % of control
- T/C (dose: 25.0 mg/kg/injection, schedule: Q01DX009 (ip), vehicle: saline): 101 % of control
- T/C (dose: 25.0 mg/kg/injection, schedule: Q04DX003 (ip), vehicle: saline): 94 % of control
- T/C [17]: 104 % of control
- T/C [11]: 113 % of control
- T/C [12]: 118 % of control

SMILES: CC(C)C(NC(=O)C(CCC(=O)O)NC(=O)C(N)Cc1ccc(O)cc1)C(=O)NCC(=O)NC(Cc1ccc(O)cc1)C(=O)NC(CCC(=O)O)C(=O)NC(C(=O)NCC(=O)NCC(=O)O)C(C)C (centres undefined) (H-YEVGYEVGG-OH; configuration not given here)
- T/C [18]: 91 % of control
- T/C [8]: 96 % of control
- T/C [9]: 91 % of control

SMILES: Nc1ncnc2c(C3OC(CO)C(O)C3O)[nH]nc12 (centres undefined)
- T/C [1]: 95 % of control
- T/C (dose: 10.0 mg/kg/injection, schedule: Q01DX015 (ip), vehicle: carboxymethylcellulose (CMC)): 109 % of control
- T/C (dose: 12.5 mg/kg/injection, schedule: Q01DX009 (ip), vehicle: saline with Tween-80): 119 % of control
- T/C [2]: 111 % of control
- T/C (dose: 25.0 mg/kg/injection, schedule: Q01DX009 (ip), vehicle: saline with Tween-80): 98 % of control
- T/C [18]: 109 % of control
- T/C [8]: 111 % of control
- T/C [7]: 108 % of control
- T/C [19]: 114 % of control
- T/C (dose: 133.0 mg/kg/injection, schedule: Q04DX003 (ip), vehicle: saline with Tween-80): 100 % of control and 117 % of control
- T/C [9]: 115 % of control
- T/C (dose: 200.0 mg/kg/injection, schedule: Q04DX003 (ip), vehicle: saline with Tween-80): 111 % of control
- T/C (dose: 300.0 mg/kg/injection, schedule: Q04DX003 (ip), vehicle: saline with Tween-80): 88 % of control

SMILES: OC1(C2C=CC=C2)c2ccccc2C=Cc2ccccc21
- T/C (dose: 9.38 mg/kg/injection, schedule: Q01DX001 (ip), vehicle: other): 100 % of control
- T/C (dose: 18.75 mg/kg/injection, schedule: Q01DX001 (ip), vehicle: other): 100 % of control
- T/C (dose: 37.5 mg/kg/injection, schedule: Q01DX001 (ip), vehicle: other): 100 % of control

SMILES: O=C([O-])C[n+]1ccccc1
- T/C [20]: 105 % of control
- T/C [12]: 105 % of control
- T/C [21]: 94 % of control
- T/C [13]: 107 % of control
- T/C [22]: 87 % of control
- T/C [23]: 100 % of control

SMILES: NCc1cccc(NC(=O)COc2cccc(Cl)c2)c1
- T/C (dose: 25.0 mg/kg/injection, schedule: Q04DX002 (ip), vehicle: Klucel (hydroxypropylcellulose) (HPC)): 100 % of control
- T/C (dose: 50.0 mg/kg/injection, schedule: Q04DX002 (ip), vehicle: Klucel (hydroxypropylcellulose) (HPC)): 111 % of control
- T/C (dose: 100.0 mg/kg/injection, schedule: Q04DX002 (ip), vehicle: Klucel (hydroxypropylcellulose) (HPC)): 100 % of control

SMILES: CN(N=O)c1ccc(/C=C/c2ccnc3ccccc23)cc1
- T/C [18]: 98 % of control
- T/C [8]: 93 % of control
- T/C [9]: 93 % of control
- T/C [10]: 91 % of control

SMILES: CCOC(/C=C/c1ccccc1)OCC
- T/C [12]: 93 % of control
- T/C [13]: 93 % of control
- T/C [23]: 98 % of control

SMILES: Nc1ncc[nH]1
- T/C [20]: 107 % of control
- T/C [14]: 90 % of control
- T/C [21]: 114 % of control
- T/C [15]: 93 % of control
- T/C [22]: 122 % of control
- T/C [16]: 90 % of control

SMILES: CC(C)CNCc1cc(Nc2ccnc3cc(Cl)ccc23)ccc1O
- T/C [14]: 94 % of control
- T/C [15]: 98 % of control

SMILES: O=C1Oc2ccccc2C1=O
- T/C [17]: 98 % of control
- T/C [3]: 101 % of control
- T/C [20]: 102 % of control
- T/C [12]: 109 % of control
- T/C [4]: 101 % of control
- T/C [21]: 91 % of control
- T/C [13]: 98 % of control

SMILES: Cc1ccc([N+](=O)[O-])c(P(=O)(O)O)c1
- T/C [19]: 100 % of control

— PubChem BioAssay AID248 (DTP/NCI, 2004)
